Laboratory results taken from PubChem BioAssay (NCI).
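Growth conditions: 96-well plates. Treatment: test compound, 48 hours, 5 concentrations. Analysis: linear interpolation between bracketing concentrations; unreached endpoints set to highest concentration. Abbreviation: GI50, concentration required for 50% inhibition of growth. Definition used: TGI = concentration required for complete inhibition of growth.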 *1 amine or outer side, *2 acyl side, *3 side chain or, on linkers, in order; H or OH if unused. Where a SMILES comes first, the peptide text is derived from it. Bridges are numbered along the chain shown (N, C = ends). Roman numbers before positions name the chains, in order. [ ]: non-standard residue; d: D form. Actinocin(9to1) = Cc1c2oc3c(C)ccc(C(=O)[*:1])c3nc-2c(C(=O)[*:2])c(N)c1=O; NMeV = CN[CH](C(=O)O)C(C)C; Sar = CNCC(=O)O

What was measured:
Test in all cases: NCI tumour cell line growth inhibition, 48 h
[1] = system: OVCAR-3 ovarian
[2] = system: MCF7 breast
[3] = system: HCC-2998 colon
[4] = system: MOLT-4 leukemia
[5] = system: PC-3 prostate
[6] = system: SNB-19 CNS
[7] = system: NCI-H522 lung
[8] = system: SF-295 CNS
[9] = system: NCI-H460 lung
[10] = system: RXF 393 renal

SMILES | TGI [1] [µM] | TGI [2] [µM] | TGI [3] [µM] | TGI [4] [µM] | TGI [5] [µM] | TGI [6] [µM] | TGI [7] [µM] | TGI [8] [µM] | TGI [9] [µM] | TGI [10] [µM] | GI50 [1] [nM] | GI50 [3] [nM] | GI50 [4] [nM] | GI50 [5] [nM] | GI50 [8] [nM] | GI50 [9] [nM] | GI50 [10] [nM] | GI50 [6] [nM] | GI50 [7] [µM] | GI50 [2] [µM]
C/C(=N\NC(=O)CC#N)C(CN1CCCCC1)C(c1ccccc1)c1c(O)c2ccccc2oc1=O (stereo unspecified) | > 100 | 40.6 | > 100 | 69.4 | > 100 | > 100 | > 100 |  |  |  |  |  |  |  |  |  |  |  |  | 
CCn1c(-c2c(Cl)cc(O)cc2Cl)cc2c(Cl)cc(O)cc21 | 97 | 25.2 |  | > 100 | > 100 | 28.3 | 6.68 | 19.8 | 18.4 | 8.03 |  |  |  |  |  |  |  |  |  | 
CCN(CC)CCCOc1ccc2ncnc(Nc3ccc(Oc4cccc(C(F)(F)F)c4)c(Cl)c3)c2c1 | 2.84 |  | 3.09 | 4.49 | 3.58 |  |  | 3.17 | 3.33 | 2.97 | 1450 | 1580 | 1880 | 1750 | 1730 | 1780 | 1450 |  |  | 
O=C1C=CC(=O)C2C1Cc1ccccc1C2c1ccccc1 (stereo unspecified) | 88.3 |  | 60 | 93.2 |  | > 100 | 35.2 | > 100 | 81.4 |  |  |  |  |  |  |  |  |  |  | 
O=S(=O)(c1ccccc1)c1nccs1 | > 100 |  | > 100 | > 100 |  | > 100 | > 100 | > 100 | > 100 |  |  |  |  |  |  |  |  |  |  | 
COc1cccc2c1C(=O)c1c(O)c3c(c(O)c1C2=O)C[C@@](O)(C(C)=O)C[C@@H]3OC1CC([N+]([O-])(Cc2ccccc2)Cc2ccccc2)C(O)C(C)O1 (stereo partly specified) | 3.28 |  | 3.07 |  |  | 15.8 | 2.68 | 2.88 | 2.39 | 2.57 |  |  |  |  |  |  |  |  |  | 
C#CCN(N=O)C(=O)NCCCCC(NC(=O)OCc1ccccc1)C(=O)OCc1ccccc1 (stereo unspecified) | 53.9 |  | > 100 | 50.6 |  | > 100 | 30 | > 100 | > 100 | 81.7 |  |  |  |  |  |  |  |  |  | 
CCC[CH2][Sn]([CH2]CCC)([CH2]CCC)[O]C(=O)C(OC(C)=O)c1ccccc1 (stereo unspecified) | 0.274 |  | 0.216 | 0.42 |  | 0.322 | 0.287 | 0.301 | 0.28 | 0.302 | 137 | 99.9 | 53.9 |  | 163 | 138 | 155 | 176 | 0.144 | 
CC1(C)OC2CC3COC(=O)C3CC2O1 (stereo unspecified) | > 100 |  | > 100 | > 100 |  |  | > 100 | > 100 | > 100 |  |  |  |  |  |  |  |  |  |  | 
CCOP(=O)(OCC)/C(C#N)=C\c1ccsc1 | > 100 |  | > 100 | > 100 |  | > 100 | > 100 | > 100 | > 100 | > 100 |  |  |  |  |  |  |  |  |  | 
O=C(Nc1cc(Cl)ccc1Cl)c1cc2cccc(Br)c2oc1=O | > 100 |  |  | > 100 |  | > 100 | > 100 | > 100 | > 100 | > 100 |  |  |  |  |  |  |  |  |  | 
CN(C)CCNC(=O)c1cccc2nc3ccc4cccnc4c3nc12 | 4.33 |  | 2.12 | 0.763 |  | 6.75 |  | 3.94 | 1.01 | 1.3 |  |  |  |  |  |  |  |  |  | 
COc1cc2c(c(O)c1C)C(=O)CC(c1ccccc1)O2 (stereo unspecified) | > 100 |  | > 100 | > 100 |  |  | > 100 | > 10 | > 10 |  |  |  |  |  |  |  |  |  |  | 
O=C1CSC(c2ccc(-c3nc4ccccc4[nH]3)cc2)=N1 | > 50 | > 50 | > 50 |  | > 50 | > 50 | > 50 | > 50 | > 50 |  | 33800 | 16300 |  | > 50000 | 29500 | 3270 |  | > 50000 | 37.3 | 8.89
CC(N)Cc1ccc(Cl)cc1 (stereo unspecified) | > 100 |  | > 100 | > 100 |  | > 100 | > 100 | > 100 | > 100 | > 100 |  |  |  |  |  |  |  |  |  | 
Cn1cnc([N+](=O)[O-])c1Sc1nnnn1C | 29.4 |  | 51.2 | 33.7 |  | > 100 | 20.5 | > 100 | > 100 |  |  |  |  |  |  |  |  |  |  | 
COC1=CC(=O)C(Br)=CC1=O |  |  | > 100 | 10.4 |  | 32.9 | 23.9 |  | > 100 | 32.3 |  |  |  |  |  |  |  |  |  | 
COc1ccc2c3c(c(C(=O)O)oc13)CCC2 | > 100 |  | > 100 | > 100 |  | > 100 | > 100 | > 100 | > 100 | > 100 |  |  |  |  |  |  |  |  |  | 
O=c1cc(-c2ccccc2)oc2ccc(OC/C(=N/O)c3ccc(F)cc3)cc12 | 7.2 |  | 12.5 | > 50 | 12.3 | > 50 | > 50 | 8.12 | 12.1 | 26.1 | 1670 | 4410 | 3540 | 2720 | 1790 | 2540 | 9990 | 5100 | 4.68 | 
Cc1c2oc3c(C)ccc(C(=O)OC(C)C4NC(=O)C(C(C)C)N(C)C(=O)CN(C)C(=O)C5CCCN5C(=O)C(C(C)C)NC4=O)c3nc-2c(C(=O)OC(C)C2NC(=O)C(C(C)C)N(C)C(=O)CN(C)C(=O)C3CCCN3C(=O)C(C(C)C)NC2=O)c(N)c1=O (stereo unspecified) (I: cyclo([Sar][NMeV]TVP) / II: cyclo([Sar][NMeV]TVP); linker I:3-II:3 via Actinocin(9to1); configuration not given here) | 0.032 | > 100 |  |  | 19.7 | > 55.5 | < 0.0116 | 1.53 | > 32.7 | 0.0185 | < 10 |  | < 10 | < 10 | < 10 | < 10 | < 10 | < 10 | < 0.01 | < 0.01
CCCN(CCC)CCc1cc(C(C)=O)n(S(=O)(=O)c2ccc(C)cc2)c1 | > 100 |  | > 100 | > 100 |  | > 100 | > 100 | > 100 | > 100 |  |  |  |  |  |  |  |  |  |  | 
